Results on 31 molecules are retold here after patent publication US20220274979A1 (Bayer Pharma Aktiengesellschaft, priority 2018, published 2022).

The target in the experiment is T1, hSOS1 (hSOS1-mediated loading of hK-RasG12C-GDP) (Homo sapiens, UniProt Q07889).
T1 construct: hSOS1 (amino acid 564-1049); made in house; host or cells: E. coli BL21 (DE3)
T1 sequence (Q07889 with tags, fused parts or gaps): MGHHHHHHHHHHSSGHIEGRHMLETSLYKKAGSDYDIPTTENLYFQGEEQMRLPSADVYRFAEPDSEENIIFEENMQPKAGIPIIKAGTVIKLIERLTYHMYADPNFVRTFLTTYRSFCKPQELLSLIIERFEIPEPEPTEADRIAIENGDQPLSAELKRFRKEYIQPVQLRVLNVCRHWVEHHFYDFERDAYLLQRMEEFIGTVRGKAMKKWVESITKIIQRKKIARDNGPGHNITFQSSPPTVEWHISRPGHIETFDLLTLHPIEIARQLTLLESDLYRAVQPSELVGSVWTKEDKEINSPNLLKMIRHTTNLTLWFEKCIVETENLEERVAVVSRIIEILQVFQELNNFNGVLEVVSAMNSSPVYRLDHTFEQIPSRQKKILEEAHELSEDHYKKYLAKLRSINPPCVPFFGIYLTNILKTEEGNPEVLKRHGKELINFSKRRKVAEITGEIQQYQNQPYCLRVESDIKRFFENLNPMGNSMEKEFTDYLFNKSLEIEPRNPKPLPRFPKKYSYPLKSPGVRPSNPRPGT
Nature of the experiment: Biochemical Assay 3: hK-RasG12C activation assay by hSOS1 (loading with fluorescent GTP analog, HTRF). As to conditions: no GTP. An excerpt:
Biochemical Assay 3: hK-RasG12C Activation Assay by hSOS1
K-Ras is a small GTPase that can bind GDP and GTP. The guanine nucleotide exchange factor SOS1 catalyzes the activation of K-Ras by promoting the exchange of GDP to GTP. SOS1 binds to K-Ras-GDP thereby opening the GDP-binding pocket to facilitate GDP release. Rebinding of excess nucleotide leads to dissociation of the K-Ras-SOS1 intermediate complex leaving K-Ras loaded with the nucleotide.
This assay quantifies human SOS1-(hSOS1-)mediated loading of human K-Ras^G12C-GDP (hK-RasG12C-GDP) with a fluorescent GTP-analog. Detection of successful loading is achieved by measuring homogenous time-resolved fluorescence resonance energy transfer (HTRF) from antiGST-Terbium (FRET donor) bound to GST-hK-RasG12C (see below) to the loaded fluorescent GTP analog (FRET-acceptor).
The fluorescent GTP-analog EDA-GTP-Dy647P1 (2′/3′-O-(2-Aminoethyl-carbamoyl)-guanosine-5′-triphosphate labelled with Dy647P1 (Dyomics GmbH, Germany)) was synthesized by Jena Biosciences GmbH (Germany) and supplied as a 1 mM aqueous solution.
The assay buffer contained 10 mM HEPES pH 7.4 (Applichem), 150 mM NaCl (Sigma), 5 mM MgCl2 (Sigma), 1 mM DTT (Thermofisher), 0.05% BSA Fraction V, pH 7.0, (ICN Biomedicals), 0.0025% (v/v) Igepal (Sigma).
Concentrations of protein batches used were optimized to be within the linear range of the HTRF signal. A hRas working solution was prepared in assay buffer containing typically 100 nM GST-hK-RasG12C and 2 nM antiGST-Tb (Cisbio, France). A hSOS1 working solution was prepared in assay buffer containing typically 20 nM hSOS1 and 200 nM EDA-GTP-Dy647P1. An inhibitor control solution was prepared in assay buffer containing 200 nM EDA-GTP-Dy647P1 without hSOS1.
Fifty nl of a 100-fold concentrated solution of the test compound in DMSO were transferred into a black microtiter test plate (384 or 1536, Greiner Bio-One, Germany) For this, either a Hummingbird liquid handler (Digilab, Mass., USA) or an Echo acoustic system (Labcyte, Calif., USA) was used.
All steps of the assay were performed at 20° C. A volume of 2.5 μl of the hRas working solution was added to all wells of the test plate using a Multidrop dispenser (Thermo Labsystems). After 10 min. preincubation, 2.5 μl of the hSOS1 working solution were added to all wells except for those wells at the side of the test plate that were subsequently filled with 2.5 μl of the inhibitor control solution. After […] incubation the fluorescence was measured with a Pherastar (BMG, Germany) using the HTRF module (excitation 337 nm, emission 1: 620 nm, emission 2:665 nm).
IC50 values were calculated by 4-Parameter fitting using a commercial software package (Genedata Screener, Switzerland).
For orientation: In TR-FRET formats the signal depends on donor and acceptor labels being close together.
`CC(=O)NC1CCN(c2cc3c(N[C@H](C)c4cccc(Br)c4)nc(C)nc3cn2)C1` (mixture of isomers) [Example 42, N-[1-(4-{[(1R)-1-(3-bromophenyl)ethyl]amino}-2-methylpyrido[3,4-d]pyrimidin-6-yl)pyrrolidin-3-yl]acetamide]: the IC50 was determined as 0.366 µM.

Molecule `Cc1nc(NC(C)c2ccc(-c3ccccc3CN(C)C)s2)c2cc(C3CCN(C)C3=O)ncc2n1` (mixture of isomers) [Example 69, 3-(4-{[1-(5-{2-[(dimethylamino)methyl]phenyl}thiophen-2-yl)ethyl]amino}-2-methylpyrido[3,4-d]pyrimidin-6-yl)-1-methylpyrrolidin-2-one] came in with a concentration for half-maximal inhibition (IC50) of 0.141 µM.

The molecule `Cc1nc(NC(C)c2ccc(-c3ccccc3CN(C)C)s2)c2cc(C3(O)CCN(C)C3=O)ncc2n1` (mixture of isomers) [Example 85, 3-(4-{[1-(5-{2-[(dimethylamino)methyl]phenyl}thiophen-2-yl)ethyl]amino}-2-methylpyrido[3,4-d]pyrimidin-6-yl)-3-hydroxy-1-methylpyrrolidin-2-one] showed an IC50 of 0.212 µM.

`CCOc1cc2c(NC(C)c3cccc4sccc34)nc(C)nc2cn1` (stereo not shown) [Example 3, N-[1-(1-benzothiophen-4-yl)ethyl]-6-ethoxy-2-methylpyrido[3,4-d]pyrimidin-4-amine] registered an IC50 of 0.355 µM.

Take `COc1cc2c(NC(C)c3cccc4sccc34)nc(C)nc2cn1` (stereo not shown) [Example 4, N-[1-(1-benzothiophen-4-yl)ethyl]-6-methoxy-2-methylpyrido[3,4-d]pyrimidin-4-amine]: the IC50 was found to be 0.555 µM. Compared with the last molecule, the IC50 is about 1.6-fold higher.

Molecule `CCOc1cc2c(N[C@H](C)c3cccc(Br)c3)nc(C)nc2cn1` [Example 5, N-[(1R)-1-(3-bromophenyl)ethyl]-6-ethoxy-2-methylpyrido[3,4-d]pyrimidin-4-amine] returned an IC50 of 2.15 µM.

With `CCOc1cc2c(N[C@H](C)c3cccc(Cl)c3)nc(C)nc2cn1` [Example 6], inhibition was half-maximal at 1.69 µM (IC50).

As for `CCOc1cc2c(N[C@H](C)c3cccc(S(C)(=O)=O)c3)nc(C)nc2cn1` [Example 7, 6-ethoxy-2-methyl-N-{(1R)-1-[3-(methylsulfonyl)phenyl]ethyl}pyrido[3,4-d]pyrimidin-4-amine], half-maximal inhibition (IC50) required 2.38 µM. This IC50 and that of the molecule before are within 1.5-fold of each other.

Molecule `COc1cc2c(N[C@H](C)c3ccc(F)c(Cl)c3)nc(C)nc2cn1` [Example 8] showed an IC50 greater than 20 µM.

Turning to `Cc1nc(N[C@H](C)c2ccc(F)cc2)c2cc(F)ncc2n1` [Example 9], the IC50 was greater than 20 µM.

As for `Cc1nc(N[C@H](C)c2ccc(F)cc2)c2cc(OCC3CCOCC3)ncc2n1` [Example 11, N-[1R)-1-(4-fluorophenypethyl]-2-methyl-6-(tetrahydro-2H-pyran-4-ylmethoxy)-pyrido[3,4-d]pyrimidin-4-amine], 2.49 µM corresponded to half-maximal inhibition (IC50). This counts as single-digit micromolar.

`COc1cc2c(N[C@H](C)c3ccc(F)c(C4CC4)c3)nc(C)nc2cn1` [Example 12] yielded an IC50 of 8.17 µM.

Take `CCOc1cc2c(N[C@H](C)c3ccc(Br)cc3)nc(C)nc2cn1` [Example 13, N-[(1R)-1-(4-bromophenyl)ethyl]-6-ethoxy-2-methylpyrido[3,4-d]pyrimidin-4-amine]: the IC50 turned out to be 7.98 µM.

In the case of `COc1cc2c(NC(C)c3cccc4c3cnn4C)nc(C)nc2cn1` (stereo not shown) [Example 14, 6-methoxy-2-methyl-N-[1-(1-methyl-1H-indazol-4-yl)ethyl]pyrido[3,4-d]pyrimidin-4-amine], the half-inhibitory concentration (IC50) is 12.6 µM. Against the preceding molecule, the IC50 is about 1.6-fold higher.

`Cc1nc(N[C@H](C)c2ccc(F)cc2)c2cc(OC(C)C)ncc2n1` [Example 15] had an IC50 of 8.79 µM.

`COc1cc2c(NC(C)c3cccc4nn(C)cc34)nc(C)nc2cn1` (stereo not shown) [Example 17, 6-methoxy-2-methyl-N-[1-(2-methyl-2H-indazol-4-yl)ethyl]pyrido[3,4-d]pyrimidin-4-amine] registered an IC50 of no less than 40 µM.

The molecule `CCOc1cc2c(N[C@H](C)c3ccc(C#N)cc3)nc(C)nc2cn1` [Example 18, 4-{(1R)-1-[(6-ethoxy-2-methylpyrido[3,4-d]pyrimidin-4-yl)amino]ethyl}benzonitrile] registered an IC50 of 4.54 µM.

Consider `Cc1nc(N[C@H](C)c2cccc(Br)c2)c2nc(OCc3ccccc3)ncc2n1` [Example 20, 6-(benzyloxy)-N-[(1R)-1-(3-bromophenyl)ethyl]-2-methylpyrimido[5,4-d]pyrimidin-4-amine], for which the concentration for half-maximal inhibition (IC50) was no less than 40 µM.

The molecule `Cc1nc(N[C@H](C)c2cccc(Br)c2)c2nc(N(C)C)ncc2n1` [Example 21] showed an IC50 of no less than 40 µM.

In the case of `Cc1nc(N[C@H](C)c2cccc(Br)c2)c2nc(N3CCOCC3)ncc2n1` [Example 22, N-[(1R)-1-(3-bromophenyl)ethyl]-2-methyl-6-(morpholin-4-yl)pyrimido[5,4-d]pyrimidin-4-amine], inhibition was half-maximal at 12.5 µM (IC50).

As to `CCOc1ncc2nc(C)nc(N[C@H](C)c3cccc(Br)c3)c2n1` [Example 23, N-[(1R)-1-(3-bromophenyl)ethyl]-6-ethoxy-2-methylpyrimido[5,4-d]pyrimidin-4-amine], half-maximal inhibition (IC50) was put at 3.28 µM. Compared with the last molecule, the IC50 is about 3.8-fold lower.

Turning to `COc1ncc2nc(C)nc(N[C@H](C)c3cccc(Br)c3)c2n1` [Example 24, N-[(1R)-1-(3-bromophenyl)ethyl]-6-methoxy-2-methylpyrimido[5,4-d]pyrimidin-4-amine], the IC50 is greater than 20 µM.

For `Cc1nc(N[C@H](C)c2cccc(Br)c2)c2nc(Oc3ccccc3)ncc2n1` [Example 25, N-[(1R)-1-(3-bromophenyl)ethyl]-2-methyl-6-phenoxypyrimido[5,4-d]pyrimidin-4-amine], the IC50 was greater than 20 µM.

In turn, `COCCOc1ncc2nc(C)nc(N[C@H](C)c3cccc(Br)c3)c2n1` [Example 26, N-[(1R)-1-(3-bromophenyl)ethyl]-6-(2-methoxyethoxy)-2-methylpyrimido[5,4-d]pyrimidin-4-amine] came in with an IC50 greater than 20 µM.

For the molecule `Cc1nc(N[C@H](C)c2cccc(Br)c2)c2nc(N3CCOCC3)ccc2n1` [Example 27, N-[(1R)-1-(3-bromophenyl)ethyl]-2-methyl-6-(morpholin-4-yl)pyrido[3,2-d]pyrimidin-4-amine], 10.6 µM corresponded to half-maximal inhibition (IC50).

`COc1ccc2nc(C)nc(N[C@H](C)c3cccc(Br)c3)c2n1` [Example 28, N-[(1R)-1-(3-bromophenyl)ethyl]-6-methoxy-2-methylpyrido[3,2-d]pyrimidin-4-amine] registered an IC50 greater than 20 µM.

Regarding `CCOc1ccc2nc(C)nc(N[C@H](C)c3cccc(Br)c3)c2n1` [Example 29, N-[(1R)-1-(3-bromophenyl)ethyl]-6-ethoxy-2-methylpyrido[3,2-d]pyrimidin-4-amine], the IC50 is greater than 20 µM.

For the molecule `COCCOc1ccc2nc(C)nc(N[C@H](C)c3cccc(Br)c3)c2n1` [Example 30, N-[(1R)-1-(3-bromophenyl)ethyl]-6-(2-methoxyethoxy)-2-methylpyrido[3,2-d]pyrimidin-4-amine], the IC50 was no less than 27.8 µM.

`Cc1nc(N[C@H](C)c2cccc(Br)c2)c2nc(N(C)C)ccc2n1` [Example 31] showed an IC50 greater than 20 µM.

For `Cc1nc(N[C@H](C)c2cccc(Br)c2)c2nc(Oc3ccccc3)ccc2n1` [Example 32, N-[(1R)-1-(3-bromophenyl)ethyl]-2-methyl-6-phenoxypyrido[3,2-d]pyrimidin-4-amine], the IC50 was greater than 20 µM.

In turn, `Cc1nc(N[C@H](C)c2cccc(Br)c2)c2nc(OCc3ccccc3)ccc2n1` [Example 33, 6-(benzyloxy)-N-[(1R)-1-(3-bromophenyl)ethyl]-2-methylpyrido[3,2-d]pyrimidin-4-amine] returned an IC50 greater than 20 µM.

Broadly, the IC50 is the concentration at which inhibition is half-maximal. A lower IC50 goes with greater potency in that assay.
